According to patent US8273761B2, “Tricyclic compound and medical use thereof” (Takeda Pharmaceutical Company Limited, priority 2006, dated 2012):

Biological target: T1, human melatonin 2 receptors (human MT2 receptors) (Homo sapiens, UniProt P49286)
T1 construct: expressed in transfected cells
T1 sequence (P49286 1-362): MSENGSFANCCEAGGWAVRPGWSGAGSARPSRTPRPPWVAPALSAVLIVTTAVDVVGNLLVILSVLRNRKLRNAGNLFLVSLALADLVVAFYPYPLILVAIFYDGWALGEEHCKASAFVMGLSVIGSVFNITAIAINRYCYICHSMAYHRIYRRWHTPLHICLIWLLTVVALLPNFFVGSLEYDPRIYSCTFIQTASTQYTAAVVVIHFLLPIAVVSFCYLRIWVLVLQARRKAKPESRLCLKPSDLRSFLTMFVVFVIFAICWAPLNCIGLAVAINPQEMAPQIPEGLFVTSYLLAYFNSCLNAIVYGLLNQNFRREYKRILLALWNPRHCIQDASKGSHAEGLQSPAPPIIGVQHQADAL
Test: Melatonin receptor binding inhibitory test (MT2)
Conditions: 2-[125I] Iodomelatonin 1 nM solution, membrane fraction of CHO-hMT2 cells, 25° C. for 2.5 hr
Protocol: Melatonin Receptor Binding Inhibitory Test (2) Preparation of CHO-hMT2 Cells Expressing Human Melatonin 2 Receptors A cDNA fragment (SEQ ID NO: 2) encoding full-length of human melatonin 2 receptors (human MT2 receptors) was incorporated into expression vector pCMV-Script (Stratagene, #212220) to give the plasmid that was pCMV-human MT2 receptors expression vector for animal cell expression. CHO-K1 cells (ATCC, #CCL-61) were plated at the concentration of 1.5×10^5 cells/cm^2 in a 6 well plate (ASAHI TECHNO GLASS), and cultured under the conditions of 37° C., 5% CO2 for 24 hr. For gene transfection, solution obtained by blending pCMV-human MT2 receptors expression vector (1.9 μg), Lipofectamine Transfection Reagent (Invitrogen, #18324-012) (11.3 μL) and Minimum Essential Medium Eagle (MEM) medium (Sigma, M8042) (93.8 μL), and reacting at room temperature for 20 min was added to the cells per one well. The transfected cells were cultured in MEM medium containing 10% FBS (Life Technology) and 300 μg/mL Geneticin (GIBCO, #10131), and the cell line that stably expressed the plasmid gene was selected. By a receptor binding assay using 2-[^125I] […] (3) Preparation of Cellular Membrane Fraction of CHO Cell (CHO-hMelR7 and CHO-hMT2) Stably Expressing Human MT1 and MT2 Receptors CHO-hMelR7 and CHO-hMT2 cells were plated using Cellfactory (Nunc, #170009) under the conditions of 1×10^8 cells/2000 mL/flask. The cells were grown to confluent, and recovered by the following method. As the medium for CHO-hMelR7 and CHO-hMT2, MEM α containing 10% FBS and penicillin/streptomycin was used. 300 ng/mL of geneticin was added to the medium for CHO-hMT2. The medium was discarded, cells were washed twice with 200 mL of EDTA/PBS(-), 200 mL of EDTA/PBS(-) was further added, and the cells were stood still at room temperature for 20 min until they were released. The cells were recovered in four 50 mL tubes (Becton Dickinson, #352070), and centrifuged at 1,500 rpm for 10 min at 4° C. using a low speed cooling centrifuge (Hitachi, CF7D2). The supernatant was discarded, the pellets in the four tubes were suspended in 10 mL of PBS(-), and combined in one tube (Becton Dickinson, #352070). The mixture was further centrifuged at 1,500 rpm for 10 min at 4° C., and the obtained pellets were suspended in 20 mL of ice-cooled homogenizing buffer [10 mM NaHCO3, 5 mM EDTA, Protease inhibitor Complete (Roche), pH 7.4]. The cell suspension was homogenized 3 times using a polytron homogenizer at 20,000 rpm for 30 sec. The obtained homogenate was centrifuged (2,000 rpm, 10 min, 4° C.) using a low speed cooling centrifuge. The supernatant was recovered in an ultracentrifugation tube and ultracentrifuged (40,000 rpm, 60 min, 4° C.) using an ultracentrifuge (Beckman, […]). To the obtained pellets was added a suspending buffer [50 mM Tris-HCl, 1 mM EDTA, Protease inhibitor Complete (Roche), pH 7.4], and the pellets were suspended by pipetting. The protein concentration of this suspension was measured, diluted to 2 mg/mL to give cellular membrane fractions of CHO-hMelR7 and CHO-hMT2 cells. […] Protein was quantified using BCA protein assay kit (Pierce) with BSA as the standard. (4) Preparation of Membrane Fraction Suspension Immediately before use, the membrane fractions of CHO-hMelR7 and CHO-hMT2 cells of the above-mentioned (3) were diluted 20-fold with assay buffer (50 mM Tris-HCl, pH 7.7). (5) Preparation of 2-[^125I] […] (6) Binding Reaction The assay buffer (80 μL) of the above-mentioned (4) was added to each well of a 96-well plate (type 3363, Corning). […] (7) Measurement Using a cell harvester (PerkinElmer), the binding reaction mixture in each well of the 96-well plate was transferred to a treated (immersed in 50 mM Tris, pH 7.7 in advance) filter plate (UniFilter GF/C, PerkinElmer) and filtered.

For `CCC(=O)NCCC1=CCc2cnc3c(c21)CCO3` [Example 29, N-[2-(1,6-dihydro-2H-cyclopenta[d]furo[2,3-b]pyridin-8-yl)ethyl]propanamide], the IC50 was no more than 0.1 µM.

With `CC(=O)NCCc1cnn2ccc3c(c12)CCO3` [Example 3, N-[2-(8,9-dihydrofuro[3,2-c]pyrazolo[1,5-a]pyridin-1-yl)ethyl]acetamide] the IC50 was no more than 0.1 µM.

Work on `CCC(=O)NCCC1CCc2cnc3c(c21)CCO3` (stereo not drawn) [Example 22, N-[2-(1,6,7,8-tetrahydro-2H-cyclopenta[d]furo[2,3-b]pyridin-8-yl)ethyl]propanamide] yielded an IC50 of no more than 0.1 µM.

`CCCC(=O)NCCC1CCc2cnc3c(c21)CCO3` (stereo not drawn) [Example 25, N-[2-(1,6,7,8-tetrahydro-2H-cyclopenta[d]furo[2,3-b]pyridin-8-yl)ethyl]butanamide] was tested, and the IC50 was no more than 0.1 µM.

For `CC(=O)NCCC1CCc2cnc3c(c21)CCO3` (single isomer, unassigned) [Example 20, optically active N-[2-(1,6,7,8-tetrahydro-2H-cyclopenta[d]furo[2,3-b]pyridin-8-yl)ethyl]acetamide], the IC50 was no more than 0.1 µM.

Molecule `CCC(=O)NCCC1CCc2cnc3c(c21)CCO3` (single isomer, unassigned) [Example 23, optically active N-[2-(1,6,7,8-tetrahydro-2H-cyclopenta[d]furo[2,3-b]pyridin-8-yl)ethyl]propanamide] has an IC50 of no more than 0.1 µM.

`CCC(=O)NCCc1c(-c2ccc(F)cc2)nn2ccc3c(c12)CCO3` [Example 16, N-{2-[2-(4-fluorophenyl)-8,9-dihydrofuro[3,2-c]pyrazolo[1,5-a]pyridin-1-yl]ethyl}propanamide] gave an IC50 of no more than 0.1 µM.

Molecule `CCC(=O)NCCc1c(-c2ccccc2)nn2ccc3c(c12)CCO3` [Example 8, N-[2-(2-phenyl-8,9-dihydrofuro[3,2-c]pyrazolo[1,5-a]pyridin-1-yl)ethyl]propanamide] has an IC50 of no more than 0.1 µM.

For `CC(=O)NCCC1=C(C(C)C)Cc2cnc3c(c21)CCO3` [Example 30, N-[2-(7-isopropyl-1,6-dihydro-2H-cyclopenta[d]furo[2,3-b]pyridin-8-yl)ethyl]acetamide], the IC50 was no more than 0.1 µM.

Work on `CCC(=O)NCC(C)c1c(CC)nn2ccc3c(c12)CCO3` (stereo not drawn) [Example 38, N-[2-(2-ethyl-8,9-dihydrofuro[3,2-c]pyrazolo[1,5-a]pyridin-1-yl)propyl]propanamide] yielded an IC50 of no more than 0.1 µM.

`CCCC(=O)NCCc1cnn2ccc3c(c12)CCO3` [Example 5, N-[2-(8,9-dihydrofuro[3,2-c]pyrazolo[1,5-a]pyridin-1-yl)ethyl]butanamide] was tested, and the IC50 was no more than 0.1 µM.

Molecule `CC(=O)NCCc1c(-c2ccc(F)cc2)nn2ccc3c(c12)CCO3` [Example 15, N-{2-[2-(4-fluorophenyl)-8,9-dihydrofuro[3,2-c]pyrazolo[1,5-a]pyridin-1-yl]ethyl}acetamide] has an IC50 of no more than 0.1 µM.

With `CCC(=O)NCCC1=C(C(C)C)Cc2cnc3c(c21)CCO3` [Example 31, N-[2-(7-isopropyl-1,6-dihydro-2H-cyclopenta[d]furo[2,3-b]pyridin-8-yl)ethyl]propanamide] the IC50 was no more than 0.1 µM.

`CCc1nn2ccc3c(c2c1C(C)CNC(C)=O)CCO3` (stereo not drawn) [Example 37, N-[2-(2-ethyl-8,9-dihydrofuro[3,2-c]pyrazolo[1,5-a]pyridin-1-yl)propyl]acetamide] was tested, and the IC50 was no more than 0.1 µM.

For `CC(=O)NCCc1c(-c2ccccc2)cn2ccc3c(c12)CCO3` [Example 17, N-[2-(8-phenyl-1,2-dihydrofuro[2,3-g]indolizin-9-yl)ethyl]acetamide], the IC50 was no more than 0.1 µM.

`CCc1nn2ccc3oc(C)cc3c2c1CCNC(C)=O` [Example 39, N-[2-(2-ethyl-8-methylfuro[3,2-c]pyrazolo[1,5-a]pyridin-1-yl)ethyl]acetamide] showed an IC50 of no more than 0.1 µM.

`CCC(=O)NCCc1cnn2ccc3c(c12)CCO3` [Example 4, N-[2-(8,9-dihydrofuro[3,2-c]pyrazolo[1,5-a]pyridin-1-yl)ethyl]propanamide] showed an IC50 of no more than 0.1 µM.

Molecule `CCC(=O)NCCc1c(-c2ccccc2)nn2ccc3occc3c12` [Example 2, N-[2-(2-phenylfuro[3,2-c]pyrazolo[1,5-a]pyridin-1-yl)ethyl]propanamide] has an IC50 of no more than 0.1 µM.
